Measurements as given in ChEMBL document CHEMBL4304811, “Development of a Water-Soluble Indolylmaleimide Derivative IM-93 Showing Dual Inhibition of Ferroptosis and NETosis” (ACS Med Chem Lett, 2019).

Legend:
[1] = target: Ephrin type-B receptor 3 (Homo sapiens) (UniProt P54753); assay: Binding affinity to wild-type human partial length EPHB3 (Q599 to T928 residues) expressed in bacterial expression system assessed as residual binding level at 10 uM by Kinomescan method relative to control
[2] = target: Fibroblast growth factor receptor 1 (Homo sapiens) (UniProt P11362); assay: Binding affinity to wild-type human partial length FGFR1 (P357 to V669 residues) expressed in bacterial expression system assessed as residual binding level at 10 uM by Kinomescan method relative to control
[3] = target: Tyrosine-protein kinase Fyn (Homo sapiens) (UniProt P06241); assay: Binding affinity to wild-type human partial length FYN (T243 to L534 residues) expressed in bacterial expression system assessed as residual binding level at 10 uM by Kinomescan method relative to control
[4] = target: Leukocyte tyrosine kinase receptor (Homo sapiens) (UniProt P29376); assay: Binding affinity to wild-type human partial length LTK (P422 to S744 residues) expressed in bacterial expression system assessed as residual binding level at 10 uM by Kinomescan method relative to control
[5] = target: Mitogen-activated protein kinase kinase kinase 13 (Homo sapiens) (UniProt O43283); assay: Binding affinity to wild-type human full length LZK (M1 to W966 residues) expressed in mammalian expression system assessed as residual binding level at 10 uM by Kinomescan method relative to control
[6] = target: Mitogen-activated protein kinase kinase kinase 1 (Homo sapiens) (UniProt Q13233); assay: Binding affinity to wild-type human partial length MAP3K1 (L1202 to W1512 residues) expressed in mammalian expression system assessed as residual binding level at 10 uM by Kinomescan method relative to control
[7] = target: Serine/threonine-protein kinase NIM1 (Homo sapiens) (UniProt Q8IY84); assay: Binding affinity to wild-type human partial length NIM1 (Q44 to N355 residues) expressed in mammalian expression system assessed as residual binding level at 10 uM by Kinomescan method relative to control
[8] = target: Serine/threonine-protein kinase PAK 6 (Homo sapiens) (UniProt Q9NQU5); assay: Binding affinity to wild-type human partial length PAK6 (N298 to C681 residues) expressed in bacterial expression system assessed as residual binding level at 10 uM by Kinomescan method relative to control
[9] = target: Cyclin-dependent kinase 17 (Homo sapiens) (UniProt Q00537); assay: Binding affinity to wild-type human full length PCTK2 (M1 to F523 residues) expressed in bacterial expression system assessed as residual binding level at 10 uM by Kinomescan method relative to control
[10] = target: Calcium-dependent protein kinase 1 (Plasmodium falciparum) (UniProt P62344); assay: Binding affinity to wild-type Plasmodium falciparum full length CDPK1 (M1 to S524 residues) expressed in mammalian expression system assessed as residual binding level at 10 uM by Kinomescan method relative to control
[11] = target: Cyclin-dependent kinase 14 (Homo sapiens) (UniProt O94921); assay: Binding affinity to wild-type human full length PFTK1 (M1 to H451 residues) expressed in bacterial expression system assessed as residual binding level at 10 uM by Kinomescan method relative to control
[12] = target: Phosphatidylinositol 5-phosphate 4-kinase type-2 beta (Homo sapiens) (UniProt P78356); assay: Binding affinity to wild-type human full length PIP5K2B (M1 to T416 residues) expressed in bacterial expression system assessed as residual binding level at 10 uM by Kinomescan method relative to control
[13] = target: cAMP-dependent protein kinase catalytic subunit alpha (Homo sapiens) (UniProt P17612); assay: Binding affinity to wild-type human partial length PKAC-alpha (G10 to F351 residues) expressed in bacterial expression system assessed as residual binding level at 10 uM by Kinomescan method relative to control
[14] = target: cAMP-dependent protein kinase catalytic subunit beta (Homo sapiens) (UniProt P22694); assay: Binding affinity to wild-type human full length PKAC-beta (M1 to F351 residues) expressed in bacterial expression system assessed as residual binding level at 10 uM by Kinomescan method relative to control
[15] = target: Serine/threonine-protein kinase N1 (Homo sapiens) (UniProt Q16512); assay: Binding affinity to wild-type human partial length PKN1 (E598 to C948 residues) expressed in bacterial expression system assessed as residual binding level at 10 uM by Kinomescan method relative to control
[16] = target: Protein kinase C eta type (Homo sapiens) (UniProt P24723); assay: Binding affinity to wild-type human partial length PRKCH (S324 to P683 residues) expressed in bacterial expression system assessed as residual binding level at 10 uM by Kinomescan method relative to control
[17] = target: Serine/threonine-protein kinase D2 (Homo sapiens) (UniProt Q9BZL6); assay: Binding affinity to wild-type human partial length PRKD2 (A519 to E838 residues) expressed in bacterial expression system assessed as residual binding level at 10 uM by Kinomescan method relative to control
[18] = target: Interferon-induced, double-stranded RNA-activated protein kinase (Homo sapiens) (UniProt P19525); assay: Binding affinity to wild-type human partial length PRKR (F247 to C551 residues) expressed in bacterial expression system assessed as residual binding level at 10 uM by Kinomescan method relative to control
[19] = target: Serine/threonine-protein kinase SIK2 (Homo sapiens) (UniProt Q9H0K1); assay: Binding affinity to wild-type human full length SIK2 (M1 to N926 residues) expressed in bacterial expression system assessed as residual binding level at 10 uM by Kinomescan method relative to control
[20] = target: STE20-like serine/threonine-protein kinase (Homo sapiens) (UniProt Q9H2G2); assay: Binding affinity to wild-type human partial length SLK (S14 to A307 residues) expressed in bacterial expression system assessed as residual binding level at 10 uM by Kinomescan method relative to control
[21] = target: Tyrosine-protein kinase Srms (Homo sapiens) (UniProt Q9H3Y6); assay: Binding affinity to wild-type human partial length SRMS (L208 to P488 residues) expressed in mammalian expression system assessed as residual binding level at 10 uM by Kinomescan method relative to control
[22] = target: SRSF protein kinase 3 (Homo sapiens) (UniProt Q9UPE1); assay: Binding affinity to wild-type human partial length SRPK3 (P41 to P567 residues) expressed in bacterial expression system assessed as residual binding level at 10 uM by Kinomescan method relative to control
[23] = target: Angiopoietin-1 receptor (Homo sapiens) (UniProt Q02763); assay: Binding affinity to wild-type human partial length TIE2 (N804 to T1112 residues) expressed in bacterial expression system assessed as residual binding level at 10 uM by Kinomescan method relative to control
[24] = target: High affinity nerve growth factor receptor (Homo sapiens) (UniProt P04629); assay: Binding affinity to wild-type human partial length TRKA (G475 to G790 residues) expressed in mammalian expression system assessed as residual binding level at 10 uM by Kinomescan method relative to control
Chain of High affinity nerve growth factor receptor (Homo sapiens) (P04629 33-796 limits assumed): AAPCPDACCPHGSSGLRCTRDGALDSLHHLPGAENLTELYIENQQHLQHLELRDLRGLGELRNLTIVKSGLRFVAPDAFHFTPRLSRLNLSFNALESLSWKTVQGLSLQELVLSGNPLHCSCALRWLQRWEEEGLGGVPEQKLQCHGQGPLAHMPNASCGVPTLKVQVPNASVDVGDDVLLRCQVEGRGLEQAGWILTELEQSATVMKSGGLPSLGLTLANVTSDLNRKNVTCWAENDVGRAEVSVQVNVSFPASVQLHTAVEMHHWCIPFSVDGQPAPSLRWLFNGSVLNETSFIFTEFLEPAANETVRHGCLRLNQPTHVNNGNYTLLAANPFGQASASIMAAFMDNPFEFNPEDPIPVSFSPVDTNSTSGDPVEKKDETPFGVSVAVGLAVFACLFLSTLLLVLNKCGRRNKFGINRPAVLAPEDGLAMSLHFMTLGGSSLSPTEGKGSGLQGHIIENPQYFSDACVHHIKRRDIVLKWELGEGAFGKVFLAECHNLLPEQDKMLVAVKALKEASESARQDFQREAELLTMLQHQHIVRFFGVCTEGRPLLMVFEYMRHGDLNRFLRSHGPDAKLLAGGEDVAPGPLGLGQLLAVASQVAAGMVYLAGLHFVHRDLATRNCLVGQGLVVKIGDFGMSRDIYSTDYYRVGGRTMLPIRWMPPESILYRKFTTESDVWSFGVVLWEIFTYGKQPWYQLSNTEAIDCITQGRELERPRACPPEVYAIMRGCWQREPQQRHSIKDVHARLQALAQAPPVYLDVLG

Chain of Mitogen-activated protein kinase kinase kinase 13 (Homo sapiens) (O43283 whole entry, the tested form may be a part): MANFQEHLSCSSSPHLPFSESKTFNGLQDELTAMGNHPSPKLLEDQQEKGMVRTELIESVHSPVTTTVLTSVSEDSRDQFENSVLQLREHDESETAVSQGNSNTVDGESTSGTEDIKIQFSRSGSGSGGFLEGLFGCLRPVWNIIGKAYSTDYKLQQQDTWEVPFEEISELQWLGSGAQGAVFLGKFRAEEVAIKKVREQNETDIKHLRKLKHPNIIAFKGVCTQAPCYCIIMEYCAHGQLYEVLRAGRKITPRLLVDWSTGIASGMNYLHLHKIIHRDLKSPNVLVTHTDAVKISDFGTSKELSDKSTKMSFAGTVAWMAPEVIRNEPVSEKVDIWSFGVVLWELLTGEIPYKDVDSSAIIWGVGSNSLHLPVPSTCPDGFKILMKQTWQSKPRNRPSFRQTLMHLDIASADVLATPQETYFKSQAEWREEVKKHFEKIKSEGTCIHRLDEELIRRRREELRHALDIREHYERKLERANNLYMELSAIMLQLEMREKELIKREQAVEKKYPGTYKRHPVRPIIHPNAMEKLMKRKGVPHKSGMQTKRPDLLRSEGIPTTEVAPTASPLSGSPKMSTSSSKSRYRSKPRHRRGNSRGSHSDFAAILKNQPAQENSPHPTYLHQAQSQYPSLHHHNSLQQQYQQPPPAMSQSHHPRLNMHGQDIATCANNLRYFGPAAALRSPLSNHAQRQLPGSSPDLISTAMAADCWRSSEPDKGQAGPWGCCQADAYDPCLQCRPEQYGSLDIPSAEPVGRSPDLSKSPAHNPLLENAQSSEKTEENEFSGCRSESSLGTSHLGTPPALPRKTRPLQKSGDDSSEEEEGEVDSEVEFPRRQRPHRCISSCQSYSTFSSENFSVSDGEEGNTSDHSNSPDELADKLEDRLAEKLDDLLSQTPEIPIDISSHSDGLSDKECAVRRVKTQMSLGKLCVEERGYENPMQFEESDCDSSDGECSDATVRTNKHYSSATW
Chain of Phosphatidylinositol 5-phosphate 4-kinase type-2 beta (Homo sapiens) (P78356 whole entry, the tested form may be a part): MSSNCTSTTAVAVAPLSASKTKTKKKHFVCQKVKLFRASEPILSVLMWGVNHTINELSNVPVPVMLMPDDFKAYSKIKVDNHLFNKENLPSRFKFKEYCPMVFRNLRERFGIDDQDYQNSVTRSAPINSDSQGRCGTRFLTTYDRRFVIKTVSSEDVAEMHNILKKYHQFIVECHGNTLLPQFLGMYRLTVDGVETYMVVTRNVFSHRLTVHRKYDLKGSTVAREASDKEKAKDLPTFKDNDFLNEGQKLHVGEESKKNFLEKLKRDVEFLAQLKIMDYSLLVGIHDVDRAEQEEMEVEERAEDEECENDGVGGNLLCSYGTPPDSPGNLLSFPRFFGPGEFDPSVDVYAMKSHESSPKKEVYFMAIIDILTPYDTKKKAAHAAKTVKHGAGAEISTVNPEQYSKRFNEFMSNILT
Chain of Cyclin-dependent kinase 17 (Homo sapiens) (Q00537 whole entry, looked up, the tested form may be a part): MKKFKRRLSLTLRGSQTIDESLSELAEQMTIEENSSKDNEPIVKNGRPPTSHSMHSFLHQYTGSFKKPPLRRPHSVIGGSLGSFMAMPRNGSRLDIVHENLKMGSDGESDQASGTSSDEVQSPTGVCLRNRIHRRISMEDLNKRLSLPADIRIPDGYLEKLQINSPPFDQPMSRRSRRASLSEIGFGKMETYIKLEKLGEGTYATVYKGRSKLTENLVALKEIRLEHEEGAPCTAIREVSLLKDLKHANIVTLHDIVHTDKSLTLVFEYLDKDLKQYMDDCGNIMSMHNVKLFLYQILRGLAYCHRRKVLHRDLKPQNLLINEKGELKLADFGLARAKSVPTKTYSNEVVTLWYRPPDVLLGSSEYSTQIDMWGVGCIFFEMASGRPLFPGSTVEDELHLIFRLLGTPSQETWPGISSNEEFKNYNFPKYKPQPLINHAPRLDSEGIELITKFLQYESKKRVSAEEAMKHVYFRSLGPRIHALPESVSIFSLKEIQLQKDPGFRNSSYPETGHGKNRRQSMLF
Chain of Serine/threonine-protein kinase PAK 6 (Homo sapiens) (Q9NQU5 whole entry, looked up, the tested form may be a part): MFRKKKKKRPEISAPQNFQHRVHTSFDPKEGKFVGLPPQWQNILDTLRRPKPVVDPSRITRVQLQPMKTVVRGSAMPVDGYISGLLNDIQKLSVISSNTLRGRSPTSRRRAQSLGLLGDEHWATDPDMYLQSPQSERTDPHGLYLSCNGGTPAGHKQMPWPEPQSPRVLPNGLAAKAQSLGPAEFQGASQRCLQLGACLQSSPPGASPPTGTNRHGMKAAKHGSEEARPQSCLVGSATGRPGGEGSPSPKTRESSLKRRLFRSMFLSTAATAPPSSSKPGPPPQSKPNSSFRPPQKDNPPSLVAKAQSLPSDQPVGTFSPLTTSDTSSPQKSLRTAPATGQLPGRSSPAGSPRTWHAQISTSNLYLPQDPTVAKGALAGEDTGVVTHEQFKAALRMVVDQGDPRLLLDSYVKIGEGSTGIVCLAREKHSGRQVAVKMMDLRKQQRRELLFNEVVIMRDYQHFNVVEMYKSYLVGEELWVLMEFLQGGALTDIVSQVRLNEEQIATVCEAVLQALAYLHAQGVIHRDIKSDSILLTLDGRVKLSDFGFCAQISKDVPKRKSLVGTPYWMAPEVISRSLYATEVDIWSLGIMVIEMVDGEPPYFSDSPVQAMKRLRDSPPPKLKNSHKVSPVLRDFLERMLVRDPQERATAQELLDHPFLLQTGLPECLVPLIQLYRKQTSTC
Chain of Ephrin type-B receptor 3 (Homo sapiens) (P54753 whole entry, the tested form may be a part): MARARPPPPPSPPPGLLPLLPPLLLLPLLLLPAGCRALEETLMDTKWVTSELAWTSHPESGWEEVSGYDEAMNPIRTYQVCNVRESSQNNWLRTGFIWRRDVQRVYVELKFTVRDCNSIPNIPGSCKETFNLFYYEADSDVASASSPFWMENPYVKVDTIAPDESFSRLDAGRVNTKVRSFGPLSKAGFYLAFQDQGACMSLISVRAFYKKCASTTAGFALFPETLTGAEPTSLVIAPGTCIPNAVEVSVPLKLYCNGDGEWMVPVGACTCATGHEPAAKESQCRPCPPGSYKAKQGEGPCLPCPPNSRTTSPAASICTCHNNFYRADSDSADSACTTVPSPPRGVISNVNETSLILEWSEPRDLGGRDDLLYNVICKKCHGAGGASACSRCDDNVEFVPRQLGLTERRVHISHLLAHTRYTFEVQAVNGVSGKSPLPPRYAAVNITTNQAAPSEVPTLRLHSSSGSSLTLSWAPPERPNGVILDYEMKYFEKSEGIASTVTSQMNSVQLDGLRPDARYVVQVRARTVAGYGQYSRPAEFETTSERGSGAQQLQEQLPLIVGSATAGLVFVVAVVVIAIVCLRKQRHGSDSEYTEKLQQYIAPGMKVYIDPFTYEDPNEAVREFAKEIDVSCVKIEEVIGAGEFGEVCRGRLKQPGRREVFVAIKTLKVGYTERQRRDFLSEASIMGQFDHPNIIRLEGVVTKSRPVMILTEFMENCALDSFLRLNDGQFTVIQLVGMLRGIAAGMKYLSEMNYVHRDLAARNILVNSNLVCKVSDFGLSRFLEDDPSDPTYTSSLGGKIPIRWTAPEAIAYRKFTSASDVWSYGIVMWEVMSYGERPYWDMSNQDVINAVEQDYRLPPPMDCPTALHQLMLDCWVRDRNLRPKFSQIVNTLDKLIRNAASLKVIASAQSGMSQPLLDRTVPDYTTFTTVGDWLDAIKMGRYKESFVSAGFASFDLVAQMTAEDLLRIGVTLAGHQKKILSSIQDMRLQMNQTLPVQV
Chain of Protein kinase C eta type (Homo sapiens) (P24723 whole entry, the tested form may be a part): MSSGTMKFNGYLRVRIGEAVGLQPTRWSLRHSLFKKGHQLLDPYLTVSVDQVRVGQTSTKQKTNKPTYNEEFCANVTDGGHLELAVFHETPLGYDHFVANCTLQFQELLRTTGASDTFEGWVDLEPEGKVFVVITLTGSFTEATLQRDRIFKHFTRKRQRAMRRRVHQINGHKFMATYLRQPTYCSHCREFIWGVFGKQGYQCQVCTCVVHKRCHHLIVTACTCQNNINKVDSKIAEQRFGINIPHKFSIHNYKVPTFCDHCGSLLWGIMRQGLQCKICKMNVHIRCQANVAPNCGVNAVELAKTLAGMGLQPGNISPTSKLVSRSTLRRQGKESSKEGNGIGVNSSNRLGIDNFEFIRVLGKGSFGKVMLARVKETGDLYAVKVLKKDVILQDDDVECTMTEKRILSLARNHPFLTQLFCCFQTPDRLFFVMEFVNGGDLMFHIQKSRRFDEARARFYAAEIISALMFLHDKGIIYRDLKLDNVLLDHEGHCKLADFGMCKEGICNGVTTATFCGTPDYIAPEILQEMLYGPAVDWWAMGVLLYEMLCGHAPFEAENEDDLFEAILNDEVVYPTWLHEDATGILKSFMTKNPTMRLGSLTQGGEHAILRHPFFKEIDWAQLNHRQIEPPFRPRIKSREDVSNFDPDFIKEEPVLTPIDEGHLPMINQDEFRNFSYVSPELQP

CC(C)N1C(=O)C(NCCCN(C)C)=C(c2cn(C)c3ccccc23)C1=O.Cl
Activity [1]: 99%
Activity [2]: 84%
Activity [3]: 100%
Activity [4]: 100%
Activity [5]: 100%
Activity [6]: 68%
Activity [7]: 90%
Activity [8]: 100%
Activity [9]: 99%
Activity [10]: 81%
Activity [11]: 100%
Activity [12]: 100%
Activity [13]: 84%
Activity [14]: 98%
Activity [15]: 100%
Activity [16]: 99%
Activity [17]: 93%
Activity [18]: 100%
Activity [19]: 100%
Activity [20]: 78%
Activity [21]: 82%
Activity [22]: 100%
Activity [23]: 93%
Activity [24]: 100%
